Molecular target: CD16a receptor (Homo sapiens, UniProt P08637)
Test: Enzyme immunoassay (ELISA) for binding of proteins and conjugates with CD16a receptor
Settings: Table 2, interferon alfa and its conjugate (FIG. 17); read-out: Activity (Kd) towards CD16a receptor
Description: Determination of conjugate activity towards CD16a receptor. The experiment uses standard materials and equipment for enzyme immunoassay. Into wells of a 96-well plate CD16a was sorbed from a solution of 3.3 μg/ml in PBS in a volume of 75 μl/well. Sorption was carried out at 4° C. during 16 h. CD16a Solution was removed from the plate, wells were filled in with 2% solution of bovine serum albumin (BSA) in PBS-p (150 μl/well). Plates were incubated at 37° C. for 2 h and three times washed with PBS-p (each time by 300 μl/well). Then the wells were filled with solutions of the conjugates in PBSP, 50 μl/well in dilutions from 0.25 to 256 μg/ml. To each dilution of the conjugate three wells corresponded in the plate. In order to control non-specific sorption of samples some wells were filled with […] BSA solution. The plate was incubated 1 h at 37° C. in a shaker for ELISA (rotation speed was 180 rpm). The plate was washed five times with 300 μl/well of PBS-p and filled with a solution of a protein modified with horseradish peroxidase (by 75 μl/well in the working dilution, which is given in the description of immunoconjugate). The plate was incubated for 30 minutes, washed five times with 300 μl/well of PBS-p and filled with a solution of TMB (100 μl/well). […] The optical density in the plate wells was measured at 450 nm at room temperature. […]

Chain of CD16a receptor (P08637 17-254): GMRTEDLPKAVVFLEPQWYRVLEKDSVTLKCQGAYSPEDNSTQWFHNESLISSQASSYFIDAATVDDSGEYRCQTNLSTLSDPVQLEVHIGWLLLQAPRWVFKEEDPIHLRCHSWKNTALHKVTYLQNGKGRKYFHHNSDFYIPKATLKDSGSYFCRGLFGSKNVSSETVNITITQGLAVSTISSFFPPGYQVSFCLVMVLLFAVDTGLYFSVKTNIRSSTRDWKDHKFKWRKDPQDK

Kd: 230 nM
Substance: interferon alfa
